Assay results from patent US10168342B2, “Lipid probes and uses thereof” (THE SCRIPPS RESEARCH INSTITUTE, priority 2015, dated 2019).
Read-outs that look alike come from different tables or passages of the source.

Assays:
[1] = biological target: AEA-DA lipid probe targets in Neuro2a cells (Mus musculus, UniProt P18242)
[2] = biological target: AEA-DA lipid probe targets in Neuro2a cells (Mus musculus, UniProt P52293)
[3] = biological target: T1, AEA-DA lipid probe targets in Neuro2a cells (Mus musculus, UniProt Q03517)
T1 sequence (Q03517 31-617): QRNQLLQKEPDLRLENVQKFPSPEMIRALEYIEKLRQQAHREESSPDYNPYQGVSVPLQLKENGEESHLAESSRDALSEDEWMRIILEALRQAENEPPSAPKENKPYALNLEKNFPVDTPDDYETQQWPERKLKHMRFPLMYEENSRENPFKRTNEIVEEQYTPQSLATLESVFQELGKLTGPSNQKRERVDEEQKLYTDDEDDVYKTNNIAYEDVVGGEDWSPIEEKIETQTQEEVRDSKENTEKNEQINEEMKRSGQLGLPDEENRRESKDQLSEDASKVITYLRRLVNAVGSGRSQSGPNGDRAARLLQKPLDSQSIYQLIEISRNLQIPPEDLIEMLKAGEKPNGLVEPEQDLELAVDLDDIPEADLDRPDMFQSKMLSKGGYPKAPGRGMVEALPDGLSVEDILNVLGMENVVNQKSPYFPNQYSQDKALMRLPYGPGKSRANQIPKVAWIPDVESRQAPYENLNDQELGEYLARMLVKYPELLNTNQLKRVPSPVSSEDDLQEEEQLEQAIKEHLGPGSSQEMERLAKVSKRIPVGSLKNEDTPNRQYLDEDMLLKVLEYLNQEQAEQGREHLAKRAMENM

[4] = biological target: AEA-DA lipid probe targets in Neuro2a cells (Mus musculus, UniProt Q791T5)
[5] = biological target: T2, AEA-DA lipid probe targets in Neuro2a cells (Mus musculus, UniProt Q791V5)
T2 sequence (Q791V5 1-303): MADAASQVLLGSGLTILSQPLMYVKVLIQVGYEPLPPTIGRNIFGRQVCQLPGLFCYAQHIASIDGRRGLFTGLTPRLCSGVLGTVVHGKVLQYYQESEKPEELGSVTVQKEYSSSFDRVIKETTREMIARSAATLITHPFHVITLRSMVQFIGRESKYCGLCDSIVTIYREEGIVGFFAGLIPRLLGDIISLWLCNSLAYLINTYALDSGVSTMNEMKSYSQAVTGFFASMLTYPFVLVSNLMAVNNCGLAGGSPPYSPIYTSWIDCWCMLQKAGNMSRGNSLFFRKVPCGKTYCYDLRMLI

[6] = biological target: AEA-DA lipid probe targets in Neuro2a cells (Mus musculus, UniProt Q8BUV8)
[7] = biological target: T3, AEA-DA lipid probe targets in Neuro2a cells (Mus musculus, UniProt Q9DC61)
T3 sequence (Q9DC61 34-524): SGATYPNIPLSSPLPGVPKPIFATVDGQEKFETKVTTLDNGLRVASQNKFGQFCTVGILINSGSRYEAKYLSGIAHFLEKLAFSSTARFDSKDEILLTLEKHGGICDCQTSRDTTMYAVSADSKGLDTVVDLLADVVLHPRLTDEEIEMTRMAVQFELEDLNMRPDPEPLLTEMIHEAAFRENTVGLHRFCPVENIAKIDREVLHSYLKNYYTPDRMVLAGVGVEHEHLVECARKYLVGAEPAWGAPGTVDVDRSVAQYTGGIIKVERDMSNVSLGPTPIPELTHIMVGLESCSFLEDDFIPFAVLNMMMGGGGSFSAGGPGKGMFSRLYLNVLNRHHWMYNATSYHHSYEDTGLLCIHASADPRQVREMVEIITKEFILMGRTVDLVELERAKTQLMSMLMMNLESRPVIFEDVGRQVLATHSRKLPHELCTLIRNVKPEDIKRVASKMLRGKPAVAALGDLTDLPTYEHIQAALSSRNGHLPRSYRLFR

[8] = test system: AEA-DA lipid probe targets in Neuro2a cells; details: for SILAC ratio, GM20425 (E9Q035): AEA-DA probe
[9] = Neuro2a cells, competitor 25 μM
[10] = competitor 25 μM, first Tmpo line (r51)
[11] = competitor 25 μM, second Tmpo line (r55)

AEA-DA lipid probe targets in Neuro2a cells (Mus musculus, UniProt P18242), sequence (P18242 65-410): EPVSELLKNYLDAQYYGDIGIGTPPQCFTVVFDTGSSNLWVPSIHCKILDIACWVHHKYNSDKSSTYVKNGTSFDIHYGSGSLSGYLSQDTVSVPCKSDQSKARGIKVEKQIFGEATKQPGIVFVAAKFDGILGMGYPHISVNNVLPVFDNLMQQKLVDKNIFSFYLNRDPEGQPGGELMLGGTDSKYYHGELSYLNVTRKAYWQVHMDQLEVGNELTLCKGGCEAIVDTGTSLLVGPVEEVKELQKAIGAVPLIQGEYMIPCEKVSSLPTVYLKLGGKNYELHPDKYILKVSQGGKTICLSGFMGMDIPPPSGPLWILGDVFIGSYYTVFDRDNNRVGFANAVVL
AEA-DA lipid probe targets in Neuro2a cells (Mus musculus, UniProt Q791T5), sequence (Q791T5 whole entry): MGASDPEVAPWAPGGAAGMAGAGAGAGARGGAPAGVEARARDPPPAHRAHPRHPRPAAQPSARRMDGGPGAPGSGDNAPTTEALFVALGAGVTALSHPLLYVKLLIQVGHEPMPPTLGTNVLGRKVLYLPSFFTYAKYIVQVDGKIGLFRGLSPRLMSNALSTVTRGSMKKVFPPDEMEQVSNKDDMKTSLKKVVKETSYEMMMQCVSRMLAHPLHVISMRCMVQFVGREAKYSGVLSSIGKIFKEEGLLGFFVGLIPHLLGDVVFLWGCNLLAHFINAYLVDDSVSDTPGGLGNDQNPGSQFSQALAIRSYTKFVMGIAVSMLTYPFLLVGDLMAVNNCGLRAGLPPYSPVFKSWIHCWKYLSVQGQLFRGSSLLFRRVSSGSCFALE
AEA-DA lipid probe targets in Neuro2a cells (Mus musculus, UniProt Q8BUV8), sequence (Q8BUV8 34-551): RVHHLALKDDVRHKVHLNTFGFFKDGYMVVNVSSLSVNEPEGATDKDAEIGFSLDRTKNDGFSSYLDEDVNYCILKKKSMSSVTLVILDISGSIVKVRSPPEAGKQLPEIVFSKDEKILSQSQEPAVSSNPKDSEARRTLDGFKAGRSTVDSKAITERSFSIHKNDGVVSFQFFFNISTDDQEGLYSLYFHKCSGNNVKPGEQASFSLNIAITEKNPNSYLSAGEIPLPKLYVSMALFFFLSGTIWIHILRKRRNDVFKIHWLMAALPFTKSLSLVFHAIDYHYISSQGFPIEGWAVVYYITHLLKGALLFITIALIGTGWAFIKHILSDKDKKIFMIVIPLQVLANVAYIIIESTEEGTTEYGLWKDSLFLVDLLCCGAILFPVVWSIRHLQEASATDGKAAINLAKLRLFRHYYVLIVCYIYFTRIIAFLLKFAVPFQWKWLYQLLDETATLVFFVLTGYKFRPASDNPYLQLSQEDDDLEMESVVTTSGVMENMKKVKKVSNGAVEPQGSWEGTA

CCCCC/C=C\C/C=C\C/C=C\C/C=C\CCCC(=O)NCCO [AEA, anandamide, reference compound]
SILAC ratio, Ctsd ([1]; competitor 200 μM): 1.2
SILAC ratio Kpna2 ([2]; competitor 200 μM): 1.5
SILAC ratio, Scg2 ([3]; competitor 200 μM): 1.2
SILAC ratio Mtch1 ([4]; competitor 200 μM): 1.4
SILAC ratio Mtch2 ([5]; competitor 200 μM): 1.5
SILAC ratio, Gpr107 ([6]; competitor 200 μM): 1.6
SILAC ratio, Pmpca ([7]; competitor 200 μM): 1.9
competition of AEA-DA labeling by lipid competitor ([8]; Neuro2a cells, 200 μM): competed with several targets
SILAC ratio, GM20425 (E9Q035) ([8]; Neuro2a cells, competitor 200 μM): 2.3
SILAC ratio Akr1c12 ([8]; competitor 200 μM): 1.8
SILAC ratio Uncharacterized ([8]; competitor 200 μM): 1.7
SILAC ratio, Akr1b10 ([8]; competitor 200 μM): 4.5
SILAC ratio, Gm20425 ([8]; competitor 200 μM): 2.3
SILAC ratio, Gm20671 ([8]; competitor 200 μM): 1.8
SILAC ratio, Tmpo ([8]; competitor 200 μM, first Tmpo line (r51)): 2.0
SILAC ratio, Tmpo ([8]; competitor 200 μM, second Tmpo line (r55)): 1.9

O=C(/C=C/c1cccnc1)NCCCCC1CCN(C(=O)c2ccccc2)CC1 [FK-866, reference compound]
SILAC ratio, Ctsd ([1]; competitor 25 μM): 1.0
SILAC ratio Kpna2 ([2]; competitor 25 μM): 1.2
SILAC ratio, Scg2 ([3]; competitor 25 μM): 1.0
SILAC ratio Mtch1 ([4]; competitor 25 μM): 1.0
SILAC ratio Mtch2 ([5]; competitor 25 μM): 1.1
SILAC ratio, Gpr107 ([6]; competitor 25 μM): 1.0
SILAC ratio, Pmpca ([7]; competitor 25 μM): 1.2
competition of probe labeling of NAMPT and ABCB1B ([8]; Neuro2a cells, AEA-DA 5 μM, drug 25 μM): competed probe-labeling
SILAC ratio, GM20425 (E9Q035) [8, 9]: 1.2
SILAC ratio Akr1c12 ([8]; competitor 25 μM): 1.3
SILAC ratio H2-K1 ([8]; competitor 25 μM): 1.0
SILAC ratio Nup205 ([8]; competitor 25 μM): 0.9
SILAC ratio Uncharacterized ([8]; competitor 25 μM): 1.3
SILAC ratio, Gm20425 ([8]; competitor 25 μM): 1.2
SILAC ratio, Tmpo [8, 10]: 1.0
SILAC ratio, Tmpo [8, 11]: 1.1

CN1CCN(C(=O)c2c(-c3ccccc3)c3cc([N+](=O)[O-])ccc3n2C)CC1 [KML110, (1-Methyl-5-nitro-3-phenyl-1H-indol-2-yl)(4-methylpiperazin-1-yl)methanone]
SILAC ratio, Ctsd ([1]; competitor 25 μM): 1.4
SILAC ratio Kpna2 ([2]; competitor 25 μM): 1.2
SILAC ratio, Scg2 ([3]; competitor 25 μM): 1.4
SILAC ratio Mtch1 ([4]; competitor 25 μM): 1.2
SILAC ratio Mtch2 ([5]; competitor 25 μM): 1.3
SILAC ratio, Gpr107 ([6]; competitor 25 μM): 1.5
SILAC ratio, Pmpca ([7]; competitor 25 μM): 1.6
SILAC ratio Akr1c12 ([8]; competitor 25 μM): 1.2
SILAC ratio H2-K1 ([8]; competitor 25 μM): 1.6
SILAC ratio Nup205 ([8]; competitor 25 μM): 1.2
SILAC ratio Uncharacterized ([8]; competitor 25 μM): 1.1
SILAC ratio, Gm20425 ([8]; competitor 25 μM): 1.5
SILAC ratio, Gm20671 ([8]; competitor 25 μM): 1.4
SILAC ratio, Tmpo [8, 10]: 1.5
SILAC ratio, Tmpo [8, 11]: 1.5

CN1CCN(C(=O)c2[nH]c3ccc([N+](=O)[O-])cc3c2-c2ccccc2)CC1 [MJN228, (4-Methylpiperazin-1-yl)(5-nitro-3-phenyl-1H-indol-2-yl)methanone]
SILAC ratio, Ctsd ([1]; competitor 10 μM): 1.2
SILAC ratio, Ctsd ([1]; competitor 25 μM): 1.2
SILAC ratio, Ctsd ([1]; competitor 50 μM): 1.2
SILAC ratio, Ctsd ([1]; competitor 100 μM): 1.1
SILAC ratio Kpna2 ([2]; competitor 10 μM): 1.3
SILAC ratio Kpna2 ([2]; competitor 25 μM): 1.2
SILAC ratio Kpna2 ([2]; competitor 50 μM): 0.9
SILAC ratio Kpna2 ([2]; competitor 100 μM): 1.3
SILAC ratio, Scg2 ([3]; competitor 10 μM): 1.3
SILAC ratio, Scg2 ([3]; competitor 25 μM): 1.5
SILAC ratio, Scg2 ([3]; competitor 50 μM): 1.2
SILAC ratio, Scg2 ([3]; competitor 100 μM): 1.1
SILAC ratio Mtch1 ([4]; competitor 10 μM): 1.1
SILAC ratio Mtch1 ([4]; competitor 25 μM): 1.2
SILAC ratio Mtch1 ([4]; competitor 50 μM): 1.0
SILAC ratio Mtch1 ([4]; competitor 100 μM): 1.2
SILAC ratio Mtch2 ([5]; competitor 10 μM): 1.2
SILAC ratio Mtch2 ([5]; competitor 25 μM): 1.3
SILAC ratio Mtch2 ([5]; competitor 50 μM): 1.1
SILAC ratio Mtch2 ([5]; competitor 100 μM): 1.4
SILAC ratio, Gpr107 ([6]; competitor 10 μM): 1.1
SILAC ratio, Gpr107 ([6]; competitor 25 μM): 1.3
SILAC ratio, Gpr107 ([6]; competitor 50 μM): 2.1
SILAC ratio, Gpr107 ([6]; competitor 100 μM): 2.9
SILAC ratio, Pmpca ([7]; competitor 10 μM): 1.2
SILAC ratio, Pmpca ([7]; competitor 25 μM): 1.4
SILAC ratio, Pmpca ([7]; competitor 50 μM): 1.4
SILAC ratio, Pmpca ([7]; competitor 100 μM): 1.5
SILAC ratio, GM20425 (E9Q035) [8, 9]: 1.7
SILAC ratio Nup205 ([8]; competitor 10 μM): 1.0
SILAC ratio Uncharacterized ([8]; competitor 10 μM): 1.1
SILAC ratio, Akr1b10 ([8]; competitor 10 μM): 2.1
SILAC ratio, Gm20425 ([8]; competitor 10 μM): 1.3
SILAC ratio, Tmpo ([8]; competitor 10 μM, first Tmpo line (r51)): 1.1
SILAC ratio, Tmpo ([8]; competitor 10 μM, second Tmpo line (r55)): 1.1
SILAC ratio H2-K1 ([8]; competitor 25 μM): 1.1
SILAC ratio Nup205 ([8]; competitor 25 μM): 1.2
SILAC ratio Uncharacterized ([8]; competitor 25 μM): 1.6
SILAC ratio, Gm20425 ([8]; competitor 25 μM): 1.7
SILAC ratio, Gm20671 ([8]; competitor 25 μM): 1.4
SILAC ratio, Tmpo [8, 10]: 1.4
SILAC ratio, Tmpo [8, 11]: 1.4
SILAC ratio Nup205 ([8]; competitor 50 μM): 1.1
SILAC ratio, Akr1b10 ([8]; competitor 50 μM): 2.6
SILAC ratio, Gm20425 ([8]; competitor 50 μM): 1.7
SILAC ratio, Tmpo ([8]; competitor 50 μM, first Tmpo line (r51)): 1.4
SILAC ratio, Tmpo ([8]; competitor 50 μM, second Tmpo line (r55)): 1.3
SILAC ratio Nup205 ([8]; competitor 100 μM): 1.2
SILAC ratio Uncharacterized ([8]; competitor 100 μM): 3.0
SILAC ratio, Akr1b10 ([8]; competitor 100 μM): 3.2
SILAC ratio, Gm20425 ([8]; competitor 100 μM): 2.9
SILAC ratio, Tmpo ([8]; competitor 100 μM, first Tmpo line (r51)): 2.1
SILAC ratio, Tmpo ([8]; competitor 100 μM, second Tmpo line (r55)): 2.0

C=CCN(C)CCCCCCOc1ccc(C(=O)c2ccc(Br)cc2)c(F)c1 [Ro 48-8071, reference compound]
SILAC ratio, Ctsd ([1]; competitor 25 μM): 0.5
SILAC ratio Kpna2 ([2]; competitor 25 μM): 0.9
SILAC ratio, Scg2 ([3]; competitor 25 μM): 1.1
SILAC ratio Mtch1 ([4]; competitor 25 μM): 0.9
SILAC ratio Mtch2 ([5]; competitor 25 μM): 0.9
SILAC ratio, Gpr107 ([6]; competitor 25 μM): 1.8
SILAC ratio, Pmpca ([7]; competitor 25 μM): 0.9
SILAC ratio, GM20425 (E9Q035) [8, 9]: 1.2
SILAC ratio Akr1c12 ([8]; competitor 25 μM): 0.9
SILAC ratio H2-K1 ([8]; competitor 25 μM): 0.9
SILAC ratio Nup205 ([8]; competitor 25 μM): 0.9
SILAC ratio Uncharacterized ([8]; competitor 25 μM): 1.0
SILAC ratio, Gm20425 ([8]; competitor 25 μM): 1.2
SILAC ratio, Gm20671 ([8]; competitor 25 μM): 1.3
SILAC ratio, Tmpo [8, 10]: 1.2
SILAC ratio, Tmpo [8, 11]: 1.2
